# Where two headings read alike, the source gives them in different places. Non-standard residues stand in square brackets, D forms with d. Residues, ends and D or L forms follow the SMILES beside them. *: point of attachment. Sta = CC(C)C[C@H](N)[C@@H](O)CC(=O)O; Isovaleryl = CC(C)CC(=O)*
# Tests used:
# [1] = molecular target: T1, R-ChHNL (Chamberlinius hualienensis, UniProt A0A0H5BR52); experiment: Search of inhibitor of R-ChHNL activity (remaining activity); format: biochemical
# [2] = test system: S-HNL derived from Baliospermum; settings: cited from earlier work
# [3] = molecular target: T1, R-ChHNL; experiment: Dynamic (kinetic) analysis, aldehyde substrates, Hanes-Woolf plot
# [4] = molecular target: T1, R-ChHNL; experiment: Substrate identification by cyanohydrin synthetic reaction; format: biochemical; settings: 50 mM carbonyl compound, 100 mM KCN, pH 4.2, 25° C., 5 minutes (aliphatic: 2 hours)
# [5] = test system: O=Cc1cccc2ccccc12; experiment: purified protein, by the assay type; settings: other: aldehydes other than benzaldehyde; condition similar to the above-described condition; pH 5.2
# [6] = test system: Cc1cccc(C=O)c1; experiment: purified protein, by the assay type; settings: other: aldehydes other than benzaldehyde; condition similar to the above-described condition; pH 5.2
# [7] = test system: Cc1ccc(C=O)cc1; experiment: purified protein, by the assay type; settings: other: aldehydes other than benzaldehyde; condition similar to the above-described condition; pH 5.2
# [8] = format: biochemical, Chamberlinius hualienensis
# Method: The stability to temperature was measured by performing the reaction in a reaction mixture of pH 7.0 at the temperature range of 0 to 70° C. for 1 hour. In addition, the reaction was similarly performed except that the reaction temperature was adjusted to 20° C. and pH was changed in the range of 3 to 11. In the reaction, citrate-phosphate buffer was used when pH was 3 to 8, and glycine-NaOH buffer was used when pH was 8 to 11. The enzyme activity was measured according to the method described in Dadashipour et al. (2011). […] In addition, the relation between the reaction temperature and the remaining activity and the relation between the reaction pH and the remaining activity of both R-ChHNLs are respectively shown in FIG. 7(A) and FIG. 7(B).
# [9] = Decomposition reaction from racemic mandelonitrile to benzaldehyde, absorbance at 280 nm; format: biochemical, Chamberlinius hualienensis; settings: purified enzyme; decomposition: 2 mM racemic mandelonitrile, pH 5.0-5.5, 22° C.
# [10] = concentration not given (1 mM or 0.1 mM), pH 7.0, 20° C., 60 minutes
# [11] = 1 mM, pH 7.0, 20° C., 60 minutes
# [12] = 1 mM, pH 7.0, 20° C., 60 minutes, read-out: Remaining activity
# [13] = 10 mM, pH 7.0, 20° C., 60 minutes, read-out: Remaining activity
# [14] = 100 μg/mL, pH 7.0, 20° C., 60 minutes
# [15] = aldehydes other than benzaldehyde, condition similar to the above-described condition
compound,measurement,setting,value
[Cl][Ni][Cl] [NiCl2],Remaining activity,[1]; [10],93%
[Cl][Pb][Cl] [PbCl2],Remaining activity,"[1]; 0.1 mM, pH 7.0, 20° C., 60 minutes",98%
same,Remaining activity,[1]; [11],77%
O=S(=O)([O-])[O-].[Zn+2] [ZnSO4],Remaining activity,[1]; [10],100%
N.N#CS [ammonium thiocyanate],inhibition of S-HNL,[2],strongly inhibits
CCC1(CC)C(=O)NC(=O)NC1=O [barbital sodium],Remaining activity,[1]; [10],93%
O=Cc1ccccc1 [benzaldehyde],max S.A. (specific activity),"[3]; pH5.2, 22° C.",7433 U/mg
same,relative S.A.,"[3]; pH5.2, 22° C., the reference case (100)",100
same,max S.A. (specific activity),"[3]; pH5.8, 35° C.",17141 U/mg
same,relative S.A.,"[3]; pH5.8, 35° C., relative to benzaldehyde at pH 5.2 and 22° C.",230.6
same,activity of R-ChHNL on the carbonyl compound as substrate,[4],recognizes
CCOC(=O)OC(=O)OCC [diethylpyrocarbonate],remaining activity at 1000 µM,[1]; [12],100%
same,remaining activity at 10000 µM,[1]; [13],79%
O=C1NC(=O)C(c2ccccc2)(c2ccccc2)N1 [diphenylhydantoin],Remaining activity,[1]; [10],100%
O=C(O)c1cc(SSc2ccc([N+](=O)[O-])c(C(=O)O)c2)ccc1[N+](=O)[O-] [dithionitrobenzoic acid],Remaining activity,[1]; [10],97%
NN [hydrazine],Remaining activity,[1]; [10],100%
NC(=O)CI [iodoacetamide],remaining activity at 1000 µM,[1]; [12],75%
same,remaining activity at 10000 µM,[1]; [13],28%
same,inhibition of the activity of R-ChHNL,[1]; concentration increased to 10 mM,inhibit
O=C(O)CI [iodoacetic acid],inhibition of the activity of R-ChHNL,[1],inhibit
same,remaining activity at 1000 µM,[1]; pH 7,52%
same,remaining activity at 10000 µM,[1]; pH 7,18%
CC(=O)N[C@@H](CC(C)C)C(=O)N[C@@H](CC(C)C)C(=O)N[C@H](C=O)CCCNC(=N)N [leupeptin],remaining activity at 100 µg/mL,[1]; [14],86%
O=C(O)c1cc[c]([Hg][Cl])cc1 [p-chloromercuribenzoic acid],Remaining activity,[1]; [10],100%
CC(C)CC(=O)N[C@H](C(=O)N[C@H](C(=O)N[C@@H](CC(C)C)[C@@H](O)CC(=O)N[C@@H](C)C(=O)N[C@@H](CC(C)C)[C@@H](O)CC(=O)O)C(C)C)C(C)C [pepstatin A] (Isovaleryl-VV[Sta]A[Sta]-OH),Remaining activity,[1]; [14],89%
"O=S(=O)(F)Cc1ccccc1 [phenylmethylsulfonyl fluoride (PMSF), phenylmethylsulfonyl fluoride]",Remaining activity,[1]; [11],91%
same,Remaining activity,"[1]; 10 mM, pH 7.0, 20° C., 60 minutes",60%
NC(=S)Nc1ccccc1 [phenylthiourea],Remaining activity,[1]; [10],100%
O=Cc1ccc2c(c1)OCO2 [piperonal],Km,[3]; [15],5.6 mM
same,Vmax,[3]; [15],3006.6 µmol/min/mg
same,kcat,[3]; [15],1245.2 s⁻¹
same,max S.A. (specific activity),[3]; [15],2748 U/mg
same,relative S.A.,"[3]; aldehydes other than benzaldehyde, relative to benzaldehyde at pH 5.2 and 22° C.",37.0
N[C@@H](CCC(=O)N[C@@H](CS)C(=O)NCC(=O)O)C(=O)O [reduced glutathione],Remaining activity,[1]; pH 7,93%
R-ChHNL (Chamberlinius hualienensis),Km,[5],0.65 mM
same,Vmax,[5],313 µmol/min/mg
same,kcat,[5],130 s⁻¹
same,kcat/Km,[5],199000 M⁻¹ s⁻¹
same,Km,[6],9.9 mM
same,Vmax,[6],14000 µmol/min/mg
same,kcat,[6],5800 s⁻¹
same,kcat/Km,[6],584000 M⁻¹ s⁻¹
same,Km,[7],5.0 mM
same,Vmax,[7],11900 µmol/min/mg
same,kcat,[7],4940 s⁻¹
same,kcat/Km,[7],989000 M⁻¹ s⁻¹
"R-ChHNL: (R)-hydroxynitrile lyase purified from Chamberlinius hualienensis, amino acid sequence SEQ ID NO: 3, homodimer",stability to pH (remaining activity),[8],stability in broad pH range
same,pH of maximum activity,"[8]; 20° C., pH 3 to 11, FIG. 5",5.8
same,activity after heating at 60° C.,"[8]; 60° C. for 1 hour or longer, FIG. 6",maintained
same,activity maintained after heating at 75° C.,[8]; 75° C. for 1 hour,20%
same,optimum temperature,[8]; FIG. 6,35 °
same,temperature at which high activity is exhibited,[8]; FIG. 6,≤ 60 °C
same,activity at pH 4 as share of maximum activity value,"[8]; pH 4, FIG. 5",about 10%
same,activity in cyanohydrin synthesis direction relative to activity in cyanohydrin decomposition reaction,[9],2.6 times
"avidin: avidin, listed as biotin reagent",Remaining activity,[1]; [14],96%
oxidized glutathione,Remaining activity,"[1]; 0.5 mM, pH 7.0, 20° C., 60 minutes",95%

# From US20170166879A1, “NOVEL (R)-HYDROXYNITRILE LYASE” (PUBLIC UNIVERSITY CORPORATION TOYAMA PREFECTURAL UNIVERSITY, priority 2014, published 2017)
